Measurements as given in article PMC7715017, “Conjugation of Synthetic Polyproline Moietes to Lipid II Binding Fragments of Nisin Yields Active and Stable Antimicrobials” (Frontiers in Microbiology, 2020).
≈ marks a conversion by molar mass, not a printed value. Where two headings read alike, the source gives them in different places.

Legend:
[1] = system: MW2-MRSA (Staphylococcus aureus MW2, methicillin resistant)
Method: (§1) All samples were resuspended in 0.05% aqueous acetic acid solution and the peptide amount was quantified by HPLC according to Schmitt et al. ([Schmitt et al., 2019]). The indicator strains MW2-MRSA, Enterococcus faecium, Listeria monocytogenes, and Lactococcus lactis were first streaked on GM17 plate and cultured overnight. The peptide samples were diluted with 0.05% acetic acid to a concentration of 40–320 μM (depending on the estimated activity of the peptide and the strain tested). The MIC value test was performed according to [Wiegand et al. (2008)].
(§2) M. flavus was used as the indicator strain for the agar well diffusion assay, and 0.15 nmol of each sample was added to each well (Figure 3). […] Antimicrobial activity of all compounds was tested by growth inhibition assays against two clinically relevant Gram-positive pathogens, i.e., methicillin resistant S. aureus and vancomycin resistant E. faecium, as well as L. monocytogenes, and L. lactis. […] For this experiment, an activity test was performed against the NSR producing strain L. lactis NZ9000 (pNSR).

[2] = system: Enterococcus faecium LMG 16003 (vancomycin resistant, VRE)
Method: as §1, §2

L. lactis NZ9000 (pNSR) = conditions: for MIC against NZ9000 with vs without NSR production: L. lactis NZ9000 (pNSR) vs NZ9000 (pEmpty); for MIC value, L. lactis NZ9000 (pNSR): broth microdilution (Wiegand et al. 2008), strain expressing nisin resistance protein NSR
Method: as §1, §2

[3] = system: L. lactis NZ9000 (pEmpty); conditions: for MIC value, L. lactis NZ9000 (pEmpty): broth microdilution (Wiegand et al. 2008), samples in 0.05% acetic acid, strain with empty plasmid
Method: as §1, §2

[4] = system: Listeria monocytogenes LMG 10470
Method: as §1, §2

Micrococcus flavus = conditions: M. flavus; 0.15 nmol per well; 30°C overnight
Method: Agar well diffusion assay against Micrococcus flavus was performed as described previously ([van Heel et al., 2013]). 0.15 nmol of each sample was added to each well. The agar plate was incubated at 30°C overnight, after which the zone of inhibition was measured.
as §2

[5] = broth microdilution (Wiegand et al. 2008), samples in 0.05% acetic acid, quantified by HPLC
[6] = ratio of MICs vs nisin ABC + O6
[7] = MW2- ( MW2, methicillin resistant)

Compound	MIC value, MW2-MRSA [1, 5]	MIC value, E. faecium [2, 5]	Decrease of antimicrobial activity compared to full nisin, E. faecium ([2]; ratio of MICs vs nisin)	Increase of antimicrobial activity compared to nisin ABC, E. faecium ([2]; ratio of MICs vs nisin ABC)	Increase of antimicrobial activity compared to nisin ABC + O6, E. faecium [2, 6]	MIC against NZ9000 with vs without NSR production (L. lactis NZ9000 (pNSR))	MIC value, L. lactis NZ9000 (pNSR) (L. lactis NZ9000 (pNSR))	MIC value, L. lactis NZ9000 (pEmpty) [3]	Increase of antimicrobial activity compared to nisin ABC, L. lactis ([3]; ratio of MICs vs nisin ABC)	Increase of antimicrobial activity compared to nisin ABC + O6, L. lactis [3, 6]	MIC value, L. monocytogenes [4, 5]	Decrease of antimicrobial activity compared to full nisin, L. monocytogenes ([4]; ratio of MICs vs nisin)	Increase of antimicrobial activity compared to nisin ABC, L. monocytogenes ([4]; ratio of MICs vs nisin ABC)	Increase of antimicrobial activity compared to nisin ABC + O6, L. monocytogenes [4, 6]	Antimicrobial activity (zone of inhibition) in agar well diffusion assay (Micrococcus flavus)	MIC value, MW2-MRSA [1, 7]	MIC value, E. faecium ([2]; LMG 16003)	MIC value, L. monocytogenes ([4]; LMG 10470)
C=C1NC(=O)[C@H]([C@@H](C)CC)NC(=O)[C@H](NC(=O)/C(=C/C)NC(=O)[C@@H](N)[C@@H](C)CC)CSC[C@@H](C(=O)N[C@H]2C(=O)N3CCC[C@H]3C(=O)NCC(=O)N[C@H](C(=O)N[C@@H](CCCCN)C(=O)N[C@H]3C(=O)NCC(=O)N[C@@H](C)C(=O)N[C@@H](CC(C)C)C(=O)N[C@@H](CCSC)C(=O)NCC(=O)N[C@H](C(=O)N[C@@H](CC(N)=O)C(=O)NCCCn4cc(CCC(=O)N5[C@H](C(=O)N6[C@H](C(=O)N7[C@H](C(=O)N8[C@H](C(=O)N9[C@H](C(=O)N%10[C@H](C(=O)N[C@@H](CCCCN)C(=O)N[C@@H](CCCCN)C(=O)N[C@@H](CCCCN)C(=O)O)C[C@@H]%11CCCC[C@@H]%11%10)C[C@@H]%10CCCC[C@@H]%109)C[C@@H]9CCCC[C@@H]98)C[C@@H]8CCCC[C@@H]87)C[C@@H]7CCCC[C@@H]76)C[C@@H]6CCCC[C@@H]65)nn4)CS[C@H]3C)CS[C@H]2C)NC(=O)[C@H](CC(C)C)NC1=O [Nisin ABC + O6K3]	80 µM	2.5 µM	8 fold	16 fold	twice	identical MICs	2.5 μM	2.5 μM	2 fold	twice	10 µM	4 fold	4 fold	twice	–	–	–	–
C=C1NC(=O)[C@H]([C@@H](C)CC)NC(=O)[C@H](NC(=O)/C(=C/C)NC(=O)[C@@H](N)[C@@H](C)CC)CSC[C@@H](C(=O)N[C@H]2C(=O)N3CCC[C@H]3C(=O)NCC(=O)N[C@H](C(=O)N[C@@H](CCCCN)C(=O)NCCCn3cc(CCC(=O)N4[C@H](C(=O)N5[C@H](C(=O)N6[C@H](C(=O)N7[C@H](C(=O)N8[C@H](C(=O)N9[C@H](C(=O)N[C@@H](CCCCN)C(=O)N[C@@H](CCCCN)C(=O)N[C@@H](CCCCN)C(=O)O)C[C@@H]%10CCCC[C@@H]%109)C[C@@H]9CCCC[C@@H]98)C[C@@H]8CCCC[C@@H]87)C[C@@H]7CCCC[C@@H]76)C[C@@H]6CCCC[C@@H]65)C[C@@H]5CCCC[C@@H]54)nn3)CS[C@H]2C)NC(=O)[C@H](CC(C)C)NC1=O [Nisin AB + O6K3]	–	–	–	–	–	–	–	10 μM	–	–	–	–	–	–	the only active one	–	–	–
C=C1NC(=O)[C@H]([C@@H](C)CC)NC(=O)[C@H](NC(=O)/C(=C/C)NC(=O)[C@@H](N)[C@@H](C)CC)CSC[C@@H](C(=O)N[C@H]2C(=O)N3CCC[C@H]3C(=O)NCC(=O)N[C@H](C(=O)N[C@@H](CCCCN)C(=O)N[C@H]3C(=O)NCC(=O)N[C@@H](C)C(=O)N[C@@H](CC(C)C)C(=O)N[C@@H](CCSC)C(=O)NCC(=O)N[C@H](C(=O)N[C@@H](CC(N)=O)C(=O)NCCCn4cc(CCC(=O)N5[C@H](C(=O)N6[C@H](C(=O)N7[C@H](C(=O)N8[C@H](C(=O)N9[C@H](C(=O)N%10[C@H](C(=O)O)C[C@@H]%11CCCC[C@@H]%11%10)C[C@@H]%10CCCC[C@@H]%109)C[C@@H]9CCCC[C@@H]98)C[C@@H]8CCCC[C@@H]87)C[C@@H]7CCCC[C@@H]76)C[C@@H]6CCCC[C@@H]65)nn4)CS[C@H]3C)CS[C@H]2C)NC(=O)[C@H](CC(C)C)NC1=O [Nisin ABC + O6]	–	–	–	–	–	identical MICs	5.0 μM	5.0 μM	–	–	–	–	–	–	–	80 µM	5 µM	20 µM
C=C1NC(=O)[C@H]([C@@H](C)CC)NC(=O)[C@H](NC(=O)/C(=C/C)NC(=O)[C@@H](N)[C@@H](C)CC)CSC[C@@H](C(=O)N[C@H]2C(=O)N3CCC[C@H]3C(=O)NCC(=O)N[C@H](C(=O)N[C@@H](CCCCN)C(=O)N[C@H]3C(=O)NCC(=O)N[C@@H](C)C(=O)N[C@@H](CC(C)C)C(=O)N[C@@H](CCSC)C(=O)NCC(=O)N[C@H](C(=O)N[C@@H](CC(N)=O)C(=O)NCCCn4cc(CCC(=O)N5[C@H](C(=O)N6[C@H](C(=O)N7[C@H](C(=O)N[C@@H](CCCCN)C(=O)N[C@@H](CCCCN)C(=O)N[C@@H](CCCCN)C(=O)O)C[C@@H]8CCCC[C@@H]87)C[C@@H]7CCCC[C@@H]76)C[C@@H]6CCCC[C@@H]65)nn4)CS[C@H]3C)CS[C@H]2C)NC(=O)[C@H](CC(C)C)NC1=O [Nisin ABC + O3K3]	–	–	–	–	–	–	–	2.5 μM	–	–	–	–	–	–	considerably higher than that of nisin ABC	80 µM	40 µM	80 µM
C=C1NC(=O)[C@H]([C@@H](C)CC)NC(=O)[C@H](NC(=O)/C(=C/C)NC(=O)[C@@H](N)[C@@H](C)CC)CSC[C@@H](C(=O)N[C@H]2C(=O)N3CCC[C@H]3C(=O)NCC(=O)N[C@H](C(=O)N[C@@H](CCCCN)C(=O)O)CS[C@H]2C)NC(=O)[C@H](CC(C)C)NC1=O [Nisin AB, reference compound]	–	–	–	–	–	–	–	>40 μM	–	–	–	–	–	–	not active alone	>320 µM	160 µM (≈ 184 µg/mL)	>320 µM
